The values that follow come from patent US4451468A, “Acidiferous 17-normal-pentyl sparteine tartaric and fumaric acid salts pharmaceutical compositions thereof” (Kali-Chemie Pharma GmbH, priority 1979, dated 1984).

Each structure is given as a SMILES string. Values after ≈ are worked out from the molar mass of the structure shown. Structures can show the parent of a compound that is named as a salt.

For data set [1], the system named is isolated auricle of guinea pigs. The data set can be described thus: measurement in the isolated auricle (functional refractory period and contraction force), modified method of Govier. The settings on record: Cavia porcellus, on the average; for EC (125% of initial value): read-out: FRP: concentration at which the functional refractory period is extended to 125% of the initial values; for IC25: read-out: Force: concentration at which the contraction force is reduced to 75% of the initial values. As for the experimental part: These values were determined by measurements in the isolated auricle of guinea pigs by the method (modified) of Govier, as described by Govier in J. Pharmacol. exp.

Data set [2] has as its system mice. The data set can be described thus: LD50 toxicity measurement on mice, i.p., eight days after a single application. The settings on record: calculated by method of Litchfield. In kind it is in vivo. As for the experimental part:
The LD50, i.p. values (μmole/1) were determined by toxicity measurements on mice, eight days after a single application. The LD50 values were calculated by the method of J. P. Litchfield et al., J. Pharmacol. exp. Ther. 96, 99 (1949).

Data set [3] in a line: solubility in water at 22° C. It counts as physicochemical.
A short description of data set [4]: hygroscopicity of crystalline salts. In kind it is physicochemical.
A short description of data set [5]: stability tests (storage at 55° C.; exposure to light) with thin layer chromatography. The settings on record: salts. In kind it is physicochemical. As for the experimental part:
In stability tests, no dissociation was found in thin layer chromatographic investigations. One test included storage for one month at 55° C. and as a second test utilized exposure to light (30 hours, rapid light exposure instrument "SUNTEST," Heraeus Co.).

Data set [6] concerns humans. The conditions noted are these: application to humans; cited from earlier work.

The term solubility denotes the dissolved amount per volume that the medium holds. Low values mean a poorly soluble substance, high ones a readily soluble substance. As for `CCCCCC1C2CC(CN3CCCCC23)C2CCCCN21` (single isomer, unassigned) [acidiferous 17-β-n-pentyl sparteine-L(+) tartrate], in data set [1], the EC (125% of initial value) was 9.1 µM and the IC25 was found to be 22.1 µM. For the same compound, the LD50 i.p. in data set [2] is 262 μmole/1. Further, the solubility in data set [3] was > 1000 mg/mL.
On to `CCCCCC1C2CC(CN3CCCCC23)C2CCCCN21` (stereo not shown) [Example 11], for which the “hygroscopicity” value in data set [4] is on record as “very rapidly dissolved”.
Take `CCCCCC1C2CC(CN3CCCCC23)C2CCCCN21` (stereo not drawn) [Pentylsparteine diperchlorate, perchlorate of 17-β-n-pentyl sparteine]: in data set [1], the EC (125% of initial value) amounted to 7.7 µM and the IC25 turned out to be 19.2 µM. Further, in data set [2], the LD50 i.p. is given as 283 μmole/1. For the same compound, the solubility in data set [3] came out at 20 mg/mL (≈ 65.7 mM). Also, in data set [5], the “stability” value was “stable salt”. Moreover, the “toxicity in humans” value in data set [6] is “leukopenia, agranulocytosis and aplastic anemia”.
Regarding `C1CCN2C[C@@H]3C[C@@H](CN4CCCC[C@@H]34)[C@H]2C1` [Sparteine Sulfate, sparteine sulfate], in data set [1], the EC (125% of initial value) came to 33.9 µM and the IC25 came to 959 µM. For the same compound, in data set [2], the LD50 i.p. was 202 μmole/1.
On to `CCCCCC1C2CC(CN3CCCCC23)C2CCCCN21` (stereo not drawn) [hydrochloride of 17-β-n-pentyl sparteine], for which the “hygroscopicity” value in data set [4] was “extremely hydroscopic”.
Regarding `CCCCCC1C2CC(CN3CCCCC23)C2CCCCN21` (stereo not drawn) [sulfate of 17-β-n-pentyl sparteine], the “hygroscopicity” value in data set [4] is “extremely hydroscopic”.
